{"source": "ChEMBL document CHEMBL1240532", "about": "“Spiroindolones, a potent compound class for the treatment of malaria” (Science, 2010)", "key": {"[1]": {"assay": "in vivo", "settings": "Wistar, rat, iv, 5 mg/kg", "description": "Elimination half life in Wistar rat at 5 mg/kg, iv"}, "[2]": {"assay": "AUC (0 to infinity) in Wistar rat at 23.7 mg/kg, po", "assay_type": "ADME, organism-based", "design": "time infinity, dose 23.7 mg/kg, route oral", "settings": "plasma"}, "[3]": {"target": "B2 bradykinin receptor (Homo sapiens, UniProt P30411)", "assay": "Binding affinity to human recombinant bradykinin B2 receptor"}, "[4]": {"assay": "Tmax in Wistar rat at 23.7 mg/kg, po", "assay_type": "ADME, organism-based", "design": "dose 23.7 mg/kg, route oral", "settings": "in vivo"}, "[5]": {"target": "Endothelin receptor type B (Homo sapiens, UniProt P24530)", "assay": "Binding affinity to human recombinant endothelin B receptor"}, "[6]": {"target": "D(2) dopamine receptor (Homo sapiens, UniProt P14416)", "sequence (P14416 whole entry)": "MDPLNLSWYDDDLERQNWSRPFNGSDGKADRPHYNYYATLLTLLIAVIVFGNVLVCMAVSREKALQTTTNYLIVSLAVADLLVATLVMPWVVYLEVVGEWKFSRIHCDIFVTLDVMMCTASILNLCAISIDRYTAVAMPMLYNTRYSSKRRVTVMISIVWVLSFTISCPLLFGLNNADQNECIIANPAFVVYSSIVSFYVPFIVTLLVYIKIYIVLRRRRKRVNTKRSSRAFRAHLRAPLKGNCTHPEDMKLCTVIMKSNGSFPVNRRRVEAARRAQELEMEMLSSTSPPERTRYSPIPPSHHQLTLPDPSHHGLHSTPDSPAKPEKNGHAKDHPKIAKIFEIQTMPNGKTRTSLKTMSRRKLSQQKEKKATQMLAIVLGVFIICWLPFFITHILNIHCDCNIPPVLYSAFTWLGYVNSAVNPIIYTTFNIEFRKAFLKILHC", "assay": "Binding affinity to human recombinant dopamine D2 receptor"}, "[7]": {"target": "hERG (KCNH2) (Homo sapiens, UniProt Q12809)", "sequence (Q12809 whole entry)": "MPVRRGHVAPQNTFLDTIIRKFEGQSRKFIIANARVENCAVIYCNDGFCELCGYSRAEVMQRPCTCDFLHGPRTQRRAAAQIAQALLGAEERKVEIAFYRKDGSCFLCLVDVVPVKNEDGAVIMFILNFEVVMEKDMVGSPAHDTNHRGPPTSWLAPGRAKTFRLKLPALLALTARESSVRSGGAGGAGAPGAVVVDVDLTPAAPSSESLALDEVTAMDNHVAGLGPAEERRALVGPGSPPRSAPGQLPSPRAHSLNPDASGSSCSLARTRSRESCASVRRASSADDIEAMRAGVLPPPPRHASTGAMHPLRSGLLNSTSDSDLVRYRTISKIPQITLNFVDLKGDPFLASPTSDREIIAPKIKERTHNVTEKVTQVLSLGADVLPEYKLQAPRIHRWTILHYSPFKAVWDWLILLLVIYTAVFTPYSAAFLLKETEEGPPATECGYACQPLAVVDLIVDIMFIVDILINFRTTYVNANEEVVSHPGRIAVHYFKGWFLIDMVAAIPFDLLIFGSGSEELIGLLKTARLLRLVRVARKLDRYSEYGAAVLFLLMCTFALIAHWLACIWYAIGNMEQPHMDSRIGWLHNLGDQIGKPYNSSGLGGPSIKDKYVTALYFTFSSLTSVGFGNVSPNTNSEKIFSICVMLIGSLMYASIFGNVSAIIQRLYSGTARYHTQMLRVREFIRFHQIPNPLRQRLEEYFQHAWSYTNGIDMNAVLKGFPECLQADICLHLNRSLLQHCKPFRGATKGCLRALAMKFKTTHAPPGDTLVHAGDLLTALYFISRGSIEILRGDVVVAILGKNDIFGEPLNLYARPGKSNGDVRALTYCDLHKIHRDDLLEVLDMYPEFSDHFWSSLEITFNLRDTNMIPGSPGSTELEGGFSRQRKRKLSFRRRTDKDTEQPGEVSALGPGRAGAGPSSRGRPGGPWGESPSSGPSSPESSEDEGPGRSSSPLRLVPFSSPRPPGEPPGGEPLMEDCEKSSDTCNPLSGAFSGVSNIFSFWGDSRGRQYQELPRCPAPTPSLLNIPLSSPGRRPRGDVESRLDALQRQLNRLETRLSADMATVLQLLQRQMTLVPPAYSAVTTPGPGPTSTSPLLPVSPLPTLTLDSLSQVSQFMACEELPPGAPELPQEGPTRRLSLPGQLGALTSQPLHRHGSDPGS", "assay": "Inhibition of human ERG at 30 uM by patch clamp method"}, "[8]": {"test_system": "Plasmodium berghei", "assay": "Antimalarial activity against Plasmodium berghei GFP ANKA infected in NMRI mice (Mus musculus) assessed as survival at 30 mg/kg, perorally administered through 0.5% MCM/0.1%solutol HS15 formulation 24 hrs post infection for 3 days measured 96 hrs post infection", "assay_type": "functional", "settings": "route oral"}, "[9]": {"test_system": "Plasmodium falciparum", "assay": "microbe, parasite or virus in culture", "settings": "Dd2, 72 h"}, "[10]": {"assay": "in vivo", "settings": "CD1, mouse, iv, 5.4 mg/kg", "description": "Elimination half life in CD1 mouse at 5.4 mg/kg, iv"}, "[11]": {"assay": "Intrinsic clearance in human liver microsome", "assay_type": "ADME", "settings": "liver microsomes"}, "[12]": {"target": "Substance-P receptor (Homo sapiens, UniProt P25103)", "sequence (P25103 whole entry)": "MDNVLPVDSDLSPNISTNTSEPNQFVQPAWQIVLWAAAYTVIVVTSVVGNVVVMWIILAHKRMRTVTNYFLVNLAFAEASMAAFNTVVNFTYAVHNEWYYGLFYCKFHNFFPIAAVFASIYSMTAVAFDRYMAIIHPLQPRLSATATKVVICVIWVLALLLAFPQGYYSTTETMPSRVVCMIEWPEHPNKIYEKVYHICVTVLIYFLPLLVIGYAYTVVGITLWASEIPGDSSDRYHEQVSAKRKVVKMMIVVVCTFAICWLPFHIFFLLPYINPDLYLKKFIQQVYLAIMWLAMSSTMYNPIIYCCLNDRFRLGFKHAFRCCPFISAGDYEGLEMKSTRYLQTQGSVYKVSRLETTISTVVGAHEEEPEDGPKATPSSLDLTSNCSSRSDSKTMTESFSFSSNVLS", "assay": "Binding affinity to human recombinant neurokinin NK1 receptor"}, "[13]": {"assay": "in vivo", "settings": "CD1, mouse, po, 24.6 mg/kg", "description": "Elimination half life in CD1 mouse at 24.6 mg/kg, po"}, "[14]": {"target": "Glucagon receptor (Homo sapiens, UniProt P47871)", "assay": "Binding affinity to human recombinant glucagon receptor"}, "[15]": {"assay": "Intrinsic clearance in dog liver microsome", "assay_type": "ADME, Canis lupus familiaris", "settings": "liver microsomes"}, "[16]": {"assay": "Oral bioavailability in CD1 mouse at 24.6 mg/kg", "assay_type": "ADME, organism-based", "settings": "in vivo"}, "[17]": {"test_system": "Plasmodium falciparum", "assay": "Inhibition of protein synthesis in NITD609-resistant Plasmodium falciparum Dd2 Clone3 within 1 hrs by [35S]Met/Cys incorporation assay", "assay_type": "functional"}, "[18]": {"target": "Neuropeptide Y receptor type 2 (Homo sapiens, UniProt P49146)", "assay": "Binding affinity to human recombinant neuropeptide Y2 receptor"}, "[19]": {"target": "5-hydroxytryptamine receptor 2B (Homo sapiens, UniProt P41595)", "assay": "Binding affinity to human recombinant serotonin 5-HT2B receptor"}, "[20]": {"target": "Prostaglandin G/H synthase 2 (Homo sapiens, UniProt P35354)", "assay": "Binding affinity to human recombinant COX2"}, "[21]": {"target": "Alpha-1A adrenergic receptor (Homo sapiens, UniProt P35348)", "assay": "Binding affinity to human recombinant alpha 1a receptor"}, "[22]": {"target": "Corticotropin-releasing factor receptor 2 (Homo sapiens, UniProt Q13324)", "assay": "Binding affinity to human recombinant CRF2alpha receptor"}, "[23]": {"target": "Adenosine receptor A3 (Homo sapiens, UniProt P0DMS8)", "sequence (P0DMS8 whole entry)": "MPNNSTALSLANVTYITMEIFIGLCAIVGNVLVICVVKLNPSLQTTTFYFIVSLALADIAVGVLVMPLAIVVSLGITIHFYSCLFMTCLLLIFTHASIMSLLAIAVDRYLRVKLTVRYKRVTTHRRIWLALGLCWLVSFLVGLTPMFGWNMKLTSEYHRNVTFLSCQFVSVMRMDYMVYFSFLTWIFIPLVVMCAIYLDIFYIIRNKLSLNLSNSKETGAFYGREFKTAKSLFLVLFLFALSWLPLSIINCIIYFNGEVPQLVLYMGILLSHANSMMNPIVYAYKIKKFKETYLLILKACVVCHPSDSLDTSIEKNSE", "assay": "Binding affinity to human recombinant adenosine 3 receptor"}, "[24]": {"target": "Alpha-2A adrenergic receptor (Homo sapiens, UniProt P08913)", "sequence (P08913 whole entry)": "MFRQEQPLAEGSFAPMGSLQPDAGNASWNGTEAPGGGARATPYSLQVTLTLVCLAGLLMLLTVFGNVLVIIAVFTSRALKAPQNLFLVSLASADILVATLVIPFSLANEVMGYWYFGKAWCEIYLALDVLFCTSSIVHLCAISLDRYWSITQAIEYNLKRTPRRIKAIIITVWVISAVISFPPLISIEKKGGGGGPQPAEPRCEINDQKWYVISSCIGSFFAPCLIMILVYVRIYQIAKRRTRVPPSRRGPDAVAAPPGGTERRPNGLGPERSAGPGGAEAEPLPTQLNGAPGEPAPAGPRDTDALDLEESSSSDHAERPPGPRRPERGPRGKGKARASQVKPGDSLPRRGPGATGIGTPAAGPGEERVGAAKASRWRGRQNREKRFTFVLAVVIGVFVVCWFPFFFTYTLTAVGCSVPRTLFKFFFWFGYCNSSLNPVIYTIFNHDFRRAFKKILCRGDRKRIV", "assay": "Binding affinity to human recombinant alpha-2a receptor"}, "[25]": {"assay": "Volume of distribution at steady state in Wistar rat at 5 mg/kg, iv", "assay_type": "ADME, organism-based", "design": "dose 5 mg/kg, route intravenous", "settings": "in vivo, read-out: Vdss"}, "[26]": {"target": "Cholecystokinin receptor type A (Homo sapiens, UniProt P32238)", "assay": "Binding affinity to human recombinant cholecystokinin A receptor"}, "[27]": {"assay": "AUC (0 to infinity) in CD1 mouse at 24.6 mg/kg, po", "assay_type": "ADME, organism-based", "design": "time infinity, dose 24.6 mg/kg, route oral", "settings": "plasma"}, "[28]": {"test_system": "Plasmodium berghei", "assay": "Antimalarial activity against Plasmodium berghei GFP ANKA infected in NMRI mice (Mus musculus) assessed as cure rate at 10 mg/kg, perorally administered through 0.5% MCM/0.1%solutol HS15 formulation 24 hrs post infection for 3 days measured on day 30 post infection", "assay_type": "functional", "settings": "route oral"}, "[29]": {"test_system": "Plasmodium falciparum", "assay": "microbe, parasite or virus in culture", "settings": "TM90C2A"}, "[30]": {"target": "Beta-2 adrenergic receptor (Homo sapiens, UniProt P07550)", "assay": "Binding affinity to human recombinant adrenergic beta2 receptor"}, "[31]": {"target": "B1 bradykinin receptor (Homo sapiens, UniProt P46663)", "assay": "Binding affinity to human recombinant bradykinin B1 receptor"}, "[32]": {"test_system": "Plasmodium berghei", "assay": "Antimalarial activity against Plasmodium berghei GFP ANKA infected in NMRI mice (Mus musculus) assessed as survival at 10 mg/kg, perorally administered through 0.5% MCM/0.1%solutol HS15 formulation 24 hrs post infection for 3 days measured 96 hrs post infection", "assay_type": "functional", "settings": "route oral"}, "[33]": {"test_system": "Plasmodium falciparum", "assay": "microbe, parasite or virus in culture", "settings": "Dd2, 72 h", "remark": "listed apart in the source"}, "[34]": {"target": "Sodium-dependent serotonin transporter (Homo sapiens, UniProt P31645)", "assay": "Binding affinity to human recombinant serotonin transporter"}, "[35]": {"target": "Hydroxycarboxylic acid receptor 2 (Homo sapiens, UniProt Q8TDS4)", "sequence (Q8TDS4 whole entry)": "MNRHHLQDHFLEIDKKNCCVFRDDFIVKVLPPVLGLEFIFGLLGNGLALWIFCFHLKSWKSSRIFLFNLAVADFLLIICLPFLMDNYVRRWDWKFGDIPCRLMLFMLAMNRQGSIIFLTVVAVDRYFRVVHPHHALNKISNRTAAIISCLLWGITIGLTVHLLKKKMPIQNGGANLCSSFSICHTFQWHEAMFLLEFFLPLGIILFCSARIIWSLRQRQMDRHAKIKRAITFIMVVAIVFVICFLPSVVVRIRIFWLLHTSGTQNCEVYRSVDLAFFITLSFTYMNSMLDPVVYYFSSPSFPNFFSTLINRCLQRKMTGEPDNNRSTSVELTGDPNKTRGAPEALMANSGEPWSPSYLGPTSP", "assay": "Binding affinity to human recombinant niacin receptor"}, "[36]": {"target": "D(1A) dopamine receptor (Homo sapiens, UniProt P21728)", "assay": "Binding affinity to human recombinant dopamine D1 receptor"}, "[37]": {"target": "Alpha-2C adrenergic receptor (Homo sapiens, UniProt P18825)", "sequence (P18825 whole entry)": "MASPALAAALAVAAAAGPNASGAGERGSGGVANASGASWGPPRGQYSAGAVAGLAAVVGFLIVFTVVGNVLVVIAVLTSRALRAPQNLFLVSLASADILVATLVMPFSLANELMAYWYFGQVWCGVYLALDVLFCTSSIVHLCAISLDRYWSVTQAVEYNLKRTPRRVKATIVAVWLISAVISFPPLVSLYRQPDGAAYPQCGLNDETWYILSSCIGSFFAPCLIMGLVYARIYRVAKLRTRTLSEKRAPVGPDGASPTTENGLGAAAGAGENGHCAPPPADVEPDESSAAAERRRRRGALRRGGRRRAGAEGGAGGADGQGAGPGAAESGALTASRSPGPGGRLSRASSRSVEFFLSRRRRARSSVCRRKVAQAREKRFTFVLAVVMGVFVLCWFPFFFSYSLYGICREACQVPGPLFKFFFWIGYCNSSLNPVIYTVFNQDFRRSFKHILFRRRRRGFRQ", "assay": "Binding affinity to human recombinant alpha2c receptor"}, "[38]": {"target": "Beta-3 adrenergic receptor (Homo sapiens, UniProt P13945)", "sequence (P13945 whole entry)": "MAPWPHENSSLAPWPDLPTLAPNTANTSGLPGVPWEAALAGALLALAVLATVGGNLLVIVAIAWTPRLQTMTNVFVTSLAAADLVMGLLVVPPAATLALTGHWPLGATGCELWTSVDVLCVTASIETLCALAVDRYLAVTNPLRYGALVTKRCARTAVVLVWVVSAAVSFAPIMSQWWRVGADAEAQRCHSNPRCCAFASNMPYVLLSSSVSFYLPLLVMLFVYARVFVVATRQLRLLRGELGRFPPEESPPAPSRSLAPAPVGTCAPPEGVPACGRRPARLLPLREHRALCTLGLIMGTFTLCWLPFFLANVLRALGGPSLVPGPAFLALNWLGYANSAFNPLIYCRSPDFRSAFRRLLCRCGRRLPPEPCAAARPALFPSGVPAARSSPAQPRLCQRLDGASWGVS", "assay": "Binding affinity to human recombinant adrenergic beta3 receptor"}, "[39]": {"assay": "Cmax in Wistar rat at 23.7 mg/kg, po", "assay_type": "ADME, organism-based", "design": "dose 23.7 mg/kg, route oral", "settings": "in vivo"}, "[40]": {"assay": "in vivo", "settings": "Wistar, rat, po, 23.7 mg/kg", "description": "Elimination half life in Wistar rat at 23.7 mg/kg, po"}, "[41]": {"target": "Beta-1 adrenergic receptor (Homo sapiens, UniProt P08588)", "sequence (P08588 whole entry)": "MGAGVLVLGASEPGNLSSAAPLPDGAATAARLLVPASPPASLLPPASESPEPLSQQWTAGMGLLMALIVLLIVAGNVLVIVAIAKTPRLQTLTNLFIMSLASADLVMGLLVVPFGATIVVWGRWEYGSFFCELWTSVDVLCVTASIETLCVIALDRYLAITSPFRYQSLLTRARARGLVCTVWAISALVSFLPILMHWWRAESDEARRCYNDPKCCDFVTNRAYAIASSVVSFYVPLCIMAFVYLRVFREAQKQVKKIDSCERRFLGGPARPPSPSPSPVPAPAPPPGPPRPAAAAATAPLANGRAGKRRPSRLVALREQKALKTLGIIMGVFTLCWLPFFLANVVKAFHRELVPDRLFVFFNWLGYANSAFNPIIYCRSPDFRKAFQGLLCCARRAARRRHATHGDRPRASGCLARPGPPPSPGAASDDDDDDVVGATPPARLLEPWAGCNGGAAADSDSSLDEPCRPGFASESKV", "assay": "Binding affinity to human recombinant adrenergic beta-1 receptor"}, "[42]": {"target": "Histamine H3 receptor (Homo sapiens, UniProt Q9Y5N1)", "sequence (Q9Y5N1 whole entry)": "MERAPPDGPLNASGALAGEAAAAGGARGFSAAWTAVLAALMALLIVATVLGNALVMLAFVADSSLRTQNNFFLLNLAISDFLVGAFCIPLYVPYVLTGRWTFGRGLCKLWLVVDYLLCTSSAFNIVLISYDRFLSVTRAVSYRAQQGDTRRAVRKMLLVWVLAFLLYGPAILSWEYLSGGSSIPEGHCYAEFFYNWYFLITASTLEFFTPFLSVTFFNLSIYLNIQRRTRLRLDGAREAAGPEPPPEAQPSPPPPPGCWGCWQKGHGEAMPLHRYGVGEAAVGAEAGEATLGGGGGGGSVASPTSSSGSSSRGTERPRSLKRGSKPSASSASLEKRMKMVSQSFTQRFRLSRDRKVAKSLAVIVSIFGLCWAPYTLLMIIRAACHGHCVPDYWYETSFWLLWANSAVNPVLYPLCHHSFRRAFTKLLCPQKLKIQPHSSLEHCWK", "assay": "Binding affinity to human recombinant histamine H3 receptor"}, "[43]": {"target": "5-hydroxytryptamine receptor 1A (Homo sapiens, UniProt P08908)", "assay": "Binding affinity to human recombinant serotonin 5-HT1A receptor"}, "[44]": {"target": "Muscarinic acetylcholine receptor M2 (Homo sapiens, UniProt P08172)", "assay": "Binding affinity to human recombinant muscarinic M2 receptor"}, "[45]": {"test_system": "Plasmodium falciparum", "assay": "microbe, parasite or virus in culture", "settings": "Dd2, 72 h", "remark": "listed apart in the source", "description": "Antimalarial activity against Plasmodium falciparum Dd2 containing attB site inserted in parasite genome and using CAM promoter driven expressing ATP4 I398F/P990R mutant after 72 hrs by SYBR green based fluorescence assay"}, "[46]": {"test_system": "Plasmodium vivax", "assay": "Antimalarial activity against Plasmodium vivax isolates after 42 hrs", "assay_type": "functional, organism-based"}, "[47]": {"assay": "Tmax in CD1 mouse at 24.6 mg/kg, po", "assay_type": "ADME, organism-based", "design": "dose 24.6 mg/kg, route oral", "settings": "in vivo"}, "[48]": {"test_system": "Plasmodium berghei", "assay": "Antimalarial activity against Plasmodium berghei GFP ANKA infected in NMRI mice (Mus musculus) assessed as survival at 100 mg/kg, perorally administered as single dose 24 hrs post infection for 1 day measured 72 hrs post infection", "assay_type": "functional", "settings": "route oral"}, "[49]": {"target": "Glutamate [NMDA] receptor", "assay": "Binding affinity to human recombinant NMDA receptor"}, "[50]": {"assay": "AUC (0 to infinity) in Wistar rat at 5 mg/kg, iv", "assay_type": "ADME, organism-based", "design": "time infinity, dose 5 mg/kg, route intravenous", "settings": "plasma"}, "[51]": {"assay": "Binding affinity to human recombinant nicotinic (CNS) receptor"}}, "note": "The source made the active and inactive calls. No cut-off for these calls is given here.", "data": [{"compound": "C[C@H]1Cc2c([nH]c3cc(Cl)c(F)cc23)[C@@]2(N1)C(=O)Nc1ccc(Cl)cc12", "note": "[CIPARGAMIN]", "values": [{"measurement": "half-life", "setting": "[1]", "value": 10.7, "unit": "h"}, {"measurement": "AUC(0-inf)", "setting": "[2]", "value": 524, "unit": "µM·h"}, {"measurement": "IC50", "setting": "[3]", "value": "> 30", "unit": "µM"}, {"measurement": "Tmax", "setting": "[4]", "value": 8, "unit": "h"}, {"measurement": "IC50", "setting": "[5]", "value": "> 30", "unit": "µM"}, {"measurement": "IC50", "setting": "[6]", "value": "> 10", "unit": "µM"}, {"measurement": "inhibition at 30 µM", "setting": "[7]", "value": 44.9, "unit": "%"}, {"measurement": "Survival", "setting": "[8]", "value": 29.1, "unit": "days"}, {"measurement": "IC50", "setting": "[9]", "value": 0.0041, "unit": "µM"}, {"measurement": "half-life", "setting": "[10]", "value": 3.44, "unit": "h"}, {"measurement": "CLint scaled", "setting": "[11]", "value": 8.67, "unit": "mL/min/kg"}, {"measurement": "IC50", "setting": "[12]", "value": "> 10", "unit": "µM"}, {"measurement": "half-life", "setting": "[13]", "value": 10, "unit": "h"}, {"measurement": "IC50", "setting": "[14]", "value": "> 30", "unit": "µM"}, {"measurement": "CLint scaled", "setting": "[15]", "value": 22.1, "unit": "mL/min/kg"}, {"measurement": "bioavailability", "setting": "[16]", "value": 100, "unit": "%"}, {"measurement": "inhibition (INH)", "setting": "[17]", "value": 50, "unit": "%"}, {"measurement": "IC50", "setting": "[18]", "value": "> 10", "unit": "µM"}, {"measurement": "IC50", "setting": "[19]", "value": "> 10", "unit": "µM"}, {"measurement": "IC50", "setting": "[20]", "value": "> 30", "unit": "µM"}, {"measurement": "IC50", "setting": "[21]", "value": "> 10", "unit": "µM"}, {"measurement": "IC50", "setting": "[22]", "value": "> 30", "unit": "µM"}, {"measurement": "IC50", "setting": "[23]", "value": 8.3, "unit": "µM"}, {"measurement": "IC50", "setting": "[24]", "value": "> 10", "unit": "µM"}, {"measurement": "Vd", "setting": "[25]", "value": 3.04, "unit": "L/kg"}, {"measurement": "IC50", "setting": "[26]", "value": "> 30", "unit": "µM"}, {"measurement": "AUC(0-inf)", "setting": "[27]", "value": 139, "unit": "µM·h"}, {"measurement": "Activity", "setting": "[28]", "value": 50, "unit": "%"}, {"measurement": "IC50", "setting": "[29]", "value": 0.0005, "unit": "µM"}, {"measurement": "IC50", "setting": "[30]", "value": "> 10", "unit": "µM"}, {"measurement": "IC50", "setting": "[31]", "value": "> 30", "unit": "µM"}, {"measurement": "Survival", "setting": "[32]", "value": 24.4, "unit": "days"}, {"measurement": "IC50", "setting": "[33]", "value": 0.0028, "unit": "µM"}, {"measurement": "IC50", "setting": "[34]", "value": "> 10", "unit": "µM"}, {"measurement": "IC50", "setting": "[35]", "value": "> 10", "unit": "µM"}, {"measurement": "IC50", "setting": "[36]", "value": "> 10", "unit": "µM"}, {"measurement": "IC50", "setting": "[37]", "value": "> 10", "unit": "µM"}, {"measurement": "IC50", "setting": "[38]", "value": "> 30", "unit": "µM"}, {"measurement": "Cmax", "setting": "[39]", "value": 11.7, "unit": "µM"}, {"measurement": "half-life", "setting": "[40]", "value": 27.7, "unit": "h"}, {"measurement": "IC50", "setting": "[41]", "value": "> 10", "unit": "µM"}, {"measurement": "IC50", "setting": "[42]", "value": "> 10", "unit": "µM"}, {"measurement": "IC50", "setting": "[43]", "value": "> 10", "unit": "µM"}, {"measurement": "IC50", "setting": "[44]", "value": "> 10", "unit": "µM"}, {"measurement": "IC50", "setting": "[45]", "value": 0.00425, "unit": "µM"}, {"measurement": "inhibition", "setting": "[46]", "value": "Active"}, {"measurement": "Tmax", "setting": "[47]", "value": 1, "unit": "h"}, {"measurement": "Survival", "setting": "[48]", "value": ">30", "unit": "days"}, {"measurement": "IC50", "setting": "[49]", "value": "> 10", "unit": "µM"}, {"measurement": "AUC(0-inf)", "setting": "[50]", "value": 61.3, "unit": "µM·h"}, {"measurement": "IC50", "setting": "[51]", "value": "> 10", "unit": "µM"}]}]}
